# Laboratory results as given in patent US20260167614A1, “IDENTIFICATION OF SMALL MOLECULES THAT RECRUIT AND ACTIVATE RNASE L” (UNIVERSITY OF FLORIDA RESEARCH FOUNDATION, INCORPORATED, priority 2022, published 2026).
# Columns and labels:
# Assay type in all cases: cell-based
# mature miR-21 = test: RT-qPCR of mature miR-21 in CRISPR-Control sgRNA MDA-MB-231 cells; settings: 5 μM, 48 h treatment, RNase L expressed
# Protocol: Two CRISPR-modified MDA-MB-231 cell lines with either a scrambled control guide RNA (“Control sgRNA”; RNase L is expressed) or with an RNase L-targeting guide RNA (“RNase L-Targeting sgRNA”; RNase L protein abundance is knocked down) were used to complete these studies.
# MDA-MB-231 cells were treated with compound (0.1% DMSO final concentration) for 24 h, followed by removal of the compound-containing medium and redosing in growth medium for an additional 24 h (total treatment period of 48 h), with the exception of invasion assays in which the cells were treated overnight. For the time-course experiment, MDA-MB-231 cells were treated for the indicated lengths of time. MCF-10A cells, also used in invasion assays, were treated with compound overnight (0.1% DMSO final concentration).
# RNA Isolation and Quantitative Real-Time Polymerase Chain Reaction (RT-qPCR). MDAMB-231 cells were cultured as described in “Cell Culture.” After compound treatment, total RNA was extracted using a Quick-RNA Miniprep Kit (Zymo) per the manufacturer's instructions. […] RT-qPCR was performed on a QuantStudio5™ Real-Time PCR Instrument (Applied Biosystems) using Power SYBR Green Master Mix (Applied Biosystems), and the resulting data were analyzed using the ΔΔCt method.
# PDCD4 = test: Western blot of PDCD4
# Protocol: RiboTAC 7 was then assessed for its ability to affect protein levels by deactivation of a miR-21-mediated cancer circuit, i.e., derepression of PDCD4. […] Proteome-wide analysis was also completed to study the effects of 7 and a locked nucleic acid (LNA) oligonucleotide that targets miR-21-5p on the proteome. The concentrations tested of both provided similar activity (5 nM of 7 and 100 nM of the LNA), as assessed by their effect on PDCD4 levels, ˜40% enhancement. […] Neither modality affected proteins that are direct targets of miRNA let-7b-5p, further supporting that RiboTAC 7 is selectively deactivating a miR-21-mediated cancer circuit in cells (FIG. 11C-11D).
# Quantification of Protein Levels by Western Blotting. MDA-MB-231 cells were treated as described in “Cell Culture.” After treatment, the medium was removed, and the cells were washed with 1× Dulbecco's phosphate-buffered saline (DPBS). Total protein was extracted using Mammalian Protein Extraction Reagent (M-PER, Thermo Scientific) according to the manufacturer's protocol. Protein concentration was measured using a Pierce Micro BCA Protein Assay kit (Fisher Scientific). […]
# Western blots were quantified using ImageJ (National Institutes of Health).^12 Protein expression was normalized to […] abundance. […]
# MDA-MB-231 cells = test: Boyden chamber invasion assay, MDA-MB-231; settings: 5 μM
# Protocol: The effect of the RiboTAC on a miR-21-associated invasive phenotype was next assessed. Treatment with 5 μM of 7 reduced the invasiveness of MDA-MB-231 cells, by ˜30% (p<0.05) (FIG. 4E-F). […] While forced expression of a mutant pre-miR-21 in which the Dovitinib-binding site is mutated also produced an invasive phenotype, the cells were insensitive to treatment with 7 (FIG. 12).
# Boyden Chamber Invasion Assay. Hanging cell culture inserts (for 24-well plates, 8.0 μm) were pre-coated with 0.3 mg/mL Matrigel (Corning, 356234). MDA-MB-231 cells (75,000 per insert) were then seeded into the hanging inserts in serum free growth medium, with or without compound (0.1% final DMSO concentration). The inserts were then placed into 24-well plates containing complete. After 16-24 h, the medium was removed, and the hanging inserts were washed with 1×DPBS. Cells were fixed for 20 min at room temperature with 4% (w/v) paraformaldehyde in 1×DPBS. The inserts were washed twice with 1×DPBS and then stained with 0.1% (w/v) crystal violet in 20% methanol (v/v) for 20 min. The inserts were then washed twice with Nanopure water and once with 1×DPBS. Cells on the surface of the Matrigel (noninvasive) were removed with cotton swabs and invading cells were imaged under a Leica DMI3000 B […] fluorescent microscope (the number of invasive cells in 4 fields of view per sample).
smiles,measurement,setting,value
"CNC(=O)[C@H](c1ccccc1)N(C)Cc1ccc(-c2cccc(-c3sccc3NC(=O)CCOCCOCCOCCC(=O)NCCN3CCN(c4ccc5nc(-c6c(N)c7c(F)cccc7[nH]c6=O)[nH]c5c4)CC3)c2)cc1 [RiboTAC 7, (S)—N-(2-(4-(2-(4-amino-5-fluoro-2-oxo-1,2-dihydroquinolin-3-yl)-1H-benzo[d]imidazol-6-yl)piperazin-1-yl)ethyl)-3-(2-(2-(3-((2-(4′-((methyl(2-(methylamino)-2-oxo-1-phenylethyl)amino)methyl)-[1,1′-biphenyl]-3-yl)thiophen-3-yl)amino)-3-oxopropoxy)ethoxy)ethoxy)propanamide]",reduction of mature miR-21 abundance,mature miR-21,~40%
same,enhancement of PDCD4 levels,PDCD4; 5 nM of 7 and 100 nM of the LNA as printed,~40%
same,increase of PDCD4 protein levels,"PDCD4; 5 μM, CRISPR-Control sgRNA MDA-MB-231 cells",~40%
same,reduction of invasiveness,MDA-MB-231 cells,~30%
